Legend:
[1] = test system: pancreatic islets; assay: Therapeutic PEPITEM (last 6 of 12 weeks HFD): pancreatic islet immunofluorescence imaging; type: in vivo, C57BI/6J wild type (WT) mice
Procedure: (§1) Eight-week-old, male, C57BI/6J wild type (WT) mice were purchased from Charles River and were maintained in a specific pathogen free facility, with free access to food. Environmental conditions were: 21±2° C., 55±10% relative humidity and a 12 hour light-dark cycle. Mice were fed high fat diet (HFD) containing 60% fat (cat no. D12492, Research Diets, INC) for up to 12 weeks. […] Body weight was assessed weekly. Intraperitoneal glucose tolerance tests (IPGTT) were assessed at 3, 6, 8, and 12 weeks in mmol/l using Contour XT glucometer as described in Nasteska, D. et al., JCI Insight 6, doi: 10.1172/jci.insight. […]
(§2) Slides were imaged using Zeiss Axioscan 7 Slide Scanner at 20× magnification using the same acquisition parameters for each slide. Images were initially processed with ZEN Software (Black Edition v2.2) into digital arrays, which were subsequently analysed with ImageJ (1.53K). […] Average number of islets and islet area were determined and expressed as number or area/10,000 μm^2 of the whole pancreatic section area, as previously described by Slavin, B et al., Anat. […]

[2] = test system: leukocyte trafficking; assay: Therapeutic PEPITEM (last 6 of 12 weeks HFD): leukocyte subsets by flow cytometry; type: in vivo, C57BI/6J wild type (WT) mice
Procedure: (§3) Eight-week-old, male, C57BI/6J wild type (WT) mice were purchased from Charles River and were maintained in a specific pathogen free facility, with free access to food. Environmental conditions were: 21±2° C., 55±10% relative humidity and a 12 hour light-dark cycle. Mice were fed high fat diet (HFD) containing 60% fat (cat no. D12492, Research Diets, INC) for up to 12 weeks. Alzet mini pumps 2006 (Charles River) containing 3.5 mg/ml of PEPITEM (SVTEQGAELSNEER-PEG (352)-Amide; Cambridge Research Biochemicals Limited; Cambridge, UK) or phosphate buffered saline (PBS) were implanted at baseline (prophylactic administration) or following 6 weeks of HFD (therapeutic administration), continuously releasing 0.822 mg of content/week. Body weight was assessed weekly. Intraperitoneal glucose tolerance tests (IPGTT) were assessed at 3, 6, 8, and 12 weeks in mmol/l using Contour XT glucometer as described in Nasteska, D. et al., JCI Insight 6, doi: 10.1172/jci.insight. 140288 (2021). Mice were culled […] blood collected into ethylenediaminetetraacetic acid (EDTA) coated eppendorfs^RTM. The peritoneal cavity was lavaged with 5 mM EDTA, spleen and inguinal lymph nodes were isolated and stored in PBS. Gonadal visceral fat pads and abdominal subcutaneous fat was stored in RPMI 1640 media (Gibco) containing 2% BSA and pancreas was FFPE as described in Nasteska, D. et al (supra).
(§4) All tissue samples were weighed prior to processing. Fat tissue was broken into pieces, incubated in an enzyme cocktail consisting of 200 μg/ml Collagenase P (Sigma), 800 μg/ml Collagenase Dispase, 100 μg/ml DNase (both Merck) diluted in Roswell Park Memorial Institute medium (RPMI) containing 2% fetal bovine serum (FBS) at 37° C. for 30 min before being passed through 70 UM filter. Samples were washed by centrifugation in RPMI containing 2% FBS at 400 g (g-force) for 10 minutes and the stromal vascular fraction re-suspended in red blood cell (RBC) lysis buffer for 10 minutes. Samples were then washed by centrifugation at 400 g and re-suspended in RPMI containing 2% FBS. The spleen and lymph node were crushed through a […] filter. Spleen, lymph node and blood samples were all incubated in the RBC lysis buffer as described prior to re-suspension in magnetic-activated cell sorting (MACS) buffer. Peritoneal lavage fluid (PLF) were centrifuged at 400 g for 5 minutes and the cells were resuspended in MACS buffer.
(§5) All samples were blocked with Fc receptor (FcR) blocker (Miltenyi Biotec) prior to staining with the following of antibodies and Zombie Aqua (Biolegend) for 20 minutes at 4° C. prior to washing and fixation with 2% paraformaldehyde (PFA): anti-CD45.2 BV605 (clone 104; Biolegend), anti-CD3 PECy7 (clone 145-2c11), anti-CD4 eFluor450 (clone GK1.5), anti-CD8 PE-TexasRed ^RTM (clone 5H10), anti-CD44 FITC (clone IM7), anti-CD25 AF700 (clone PC61.5), anti-KLRG1 APC-eFluor780 (clone 2F1), anti-CD62L PE (clone MEL-14), anti-CD19-APC (clone 1D3), anti-CD45 APC-CY7 (clone 104), F4/80 FITC (clone BM8), anti-CD11c PE-Cy7 (clone N418), anti-Gp38 PE (clone 8.1.1; all from Thermofisher); anti-CD23 BV421 (clone B3B4), anti-CD93 BV650 (clone AA4.1), anti-CD43 PerCp-Cy5.5 (clone S7), anti-CD21/35 PE (clone 7G6), anti-Siglec F TexasRed^RTM (clone E50-2440), Ly6G APC (clone 1A8; all from BD). Compensation controls were generated using the cells isolated from the spleen. Immediately prior to analysis CountBright beads (Invitrogen) were added and samples were acquired using Fortessa-X20 and data analysed offline using FlowJo^RTM (V-10.2.6) (FIG. 4).

[3] = test system: pancreatic islets; assay: Prophylactic PEPITEM, 6 weeks HFD: pancreatic islet immunofluorescence imaging; type: in vivo, C57BI/6J wild type (WT) mice
Procedure: as §1, §2

[4] = Prophylactic PEPITEM, 6 weeks HFD: body weight and IPGTT; type: in vivo, C57BI/6J wild type (WT) mice
Procedure: as §3

[5] = Therapeutic PEPITEM (last 6 of 12 weeks HFD): body weight and IPGTT; type: in vivo, C57BI/6J wild type (WT) mice
Procedure: as §3

[6] = test system: leukocyte trafficking; assay: Prophylactic PEPITEM, 6 weeks HFD: leukocyte subsets by flow cytometry; type: in vivo, C57BI/6J wild type (WT) mice
Procedure: as §3, §4, §5

[7] = test system: J774 murine macrophages cells; assay: In vitro cytokine analysis, LPS-stimulated J774 cells (ELISA); type: cell-based; conditions: 10 ng ml^−1 PEPITEM 15 minutes pre-treatment, LPS (10 μg ml^−1) 24 h, vs PBS (FIG. 7)
Procedure: J774 murine macrophages cells were pre-treated with 10 ng ml^−1 PEPITEM (SVTEQGAELSNEER; Cambridge Research Biochemicals Limited; Cambridge, UK) or phosphate buffered saline (PBS—as control) for 15 minutes and then stimulated with LPS (10 μg ml^−1) for 24 h. Cell supernatants were collected and analysed for the protein expression of IL-6 and TNF-α by ELISA.

Substance: PEPITEM [SVTEQGAELSNEER, 14-amino-acid immunopeptide derived from 14.3.3.ζδ]
- overall number of islets ([1]; vs control mice (FIG. 2(B))): without affecting
- pancreatic islet size ([1]; vs control mice (FIG. 2(C))): significantly reduced
- CD3+KLRG1+ T-cells numbers in the peritoneal cavity ([2]; therapeutic (FIG. 2(H))): no effect
- number of CD3+KLRG1+ T-cells in the blood ([2]; therapeutic (FIG. 2(I))): lower
- number of age-associated B-cells in the blood ([2]; therapeutic (FIG. 2(J))): lower
- number of neutrophils in the blood ([2]; therapeutic (FIG. 2(K))): lower
- composition of leukocyte subsets in subcutaneous adipose tissue ([2]; therapeutic (data not shown)): no effect
- B-cell numbers in the spleen ([2]; therapeutic, vs PBS (FIG. 3(E))): elevated
- age-associated B-cell numbers in the spleen ([2]; therapeutic, vs PBS (FIG. 3(F))): elevated
- number of CD45+ leukocytes in the spleen ([2]; therapeutic, vs control animals (FIG. 3(A))): increased
- number of CD3+ T-cells in the spleen ([2]; therapeutic, vs control animals (FIG. 3(B))): increased
- number of CD45+ leukocytes in the inguinal lymph node ([2]; therapeutic, vs control animals (FIG. 3(C))): increased
- number of CD3+ T-cells in the inguinal lymph node ([2]; therapeutic, vs control animals (FIG. 3(D))): increased
- number of CD3+ T-cells in the VAT ([2]; therapeutic, vs vehicle control (FIG. 2(D))): significant reduction
- number of CD4+ T-cells in the VAT ([2]; therapeutic, vs vehicle control (FIG. 2(E))): significant reduction
- number of CD3+KLRG1+ T-cells in the VAT ([2]; therapeutic, vs vehicle control (FIG. 2(F))): significant reduction
- macrophage numbers in the peritoneal cavity ([2]; therapeutic, vs vehicle control (FIG. 2(G))): significant reduction
- number of pancreatic islets ([3]; vs PBS (FIG. 1(C))): no effect
- individual area of pancreatic islets ([3]; vs PBS (FIG. 1(D))): significantly reduced
- body weight ([4]; 6 weeks HFD, prophylactic mini pump, vs PBS (FIG. 5(A))): unaffected
- fasting glucose tolerance or insulin resistance ([4]; week 3 or 6 of HFD, prophylactic, vs PBS (FIG. 5(B))): no effect
- glucose tolerance ([5]; 8 or 12 weeks of diet, therapeutic (FIG. 5(D))): no effect
- weight of the mouse ([5]; 12 weeks HFD, therapeutic (FIG. 5(C))): no effect
- number of T-cell subsets, B-cell subsets, neutrophils, eosinophils or macrophages in the blood, inguinal lymph node or spleen ([6]; 6 weeks HFD, prophylactic (FIG. 6)): no effect
- T-cells (CD3+) in visceral adipose tissue ([6]; 6 weeks HFD, prophylactic, vs HFD control (FIG. 1(E))): Significantly fewer
- CD4+ T cells in visceral adipose tissue ([6]; 6 weeks HFD, prophylactic, vs HFD control (FIG. 1(F))): Significantly fewer
- KLRG1+CD3+ T-cells in visceral adipose tissue ([6]; 6 weeks HFD, prophylactic, vs HFD control (FIG. 1(G))): Significantly fewer
- T-cells (CD3+) in peritoneal cavity ([6]; 6 weeks HFD, prophylactic, vs HFD control (FIG. 1(H))): Significantly fewer
- KLRG1+CD3+ T-cells in peritoneal cavity ([6]; 6 weeks HFD, prophylactic, vs HFD control (FIG. 1(I))): Significantly fewer
- macrophages within the peritoneal cavity ([6]; 6 weeks HFD, prophylactic, vs PBS (FIG. 1(J)), back to levels of chow-fed mice): significant reduction
- absolute numbers of macrophages in the VAT ([6]; HFD-fed mice, model (6 or 12 weeks) not specified): did not influence
- amount of IL-6 secreted [7]: significant reduction
- amount of TNFalpha secreted [7]: significant reduction
